Experimental data from US20090258786A1, “Controlled release agricultural products and processes for making the same” (priority 2000, published 2009).

Test: Controlled release soil test (irrigated soil burial test)
Format: physicochemical
From the text: To measure the relative solubilities of the products in soil, an irrigated soil burial test was devised such that granules could be retrieved for measurement of their nitrogen content. The following is a description of the test.
Procedure for Controlled Release Soil Test
1. Screen the sample to obtain −6+7 Tyler mesh granules for the test.
4. Place 300 g of potting soil with a 40% moisture content into the container and record the weight.
7. Spread 5 grams of −6+7 Tyler mesh granules over the screen in a single layer and record the weight.
13. Mist 4 g of water into each container and immediately place the lid on container and seal.
14. After the fertilizer granules have been submerged in a humid soil environment for the allotted time (9 hours, 24 hours, and 3 days), the 150 g of soil is removed from the container.
18. Place the fertilizer granules in a laboratory oven to dry at low temperature (50° C.) for 13 hours.
20. Place the dry fertilizer sample into a 125 mL plastic sample bottle containing 20 g of de-ionized water.
21. Allow the sample to dissolve for 3 hours.
22. Place approximately 1 ml aliquot of the sample solution onto the sample stage of a refractometer(e.g., Abbe Refractometer).
23. Record the refractive index and temperature of the solution.
24. Calculate the percent urea retained from the original fertilizer sample.

NC(N)=O [plain urea, urea]
time in which particles went into solution, soil test: ≤ 9 h
